# Assay results reported in paper PMC9910343 (ACS chemical neuroscience, 2022).
# Values joined by “and” are separate entries in the source; they are usually repeats but may differ in a detail not shown here. Equal entries are not always repeated.
# Experiments:
# [1] = Plasma and CSF pharmacokinetics after s.c. or i.v. administration; assay type: in vivo, rhesus monkeys; conditions: for Cmax of metabolite hydroxyvarenicline / AUC of metabolite hydroxyvarenicline: mean
# [2] = system: neurons expressing PSAM-GlyRs; conditions: systemic administration; rhesus monkeys; cited from earlier work
# [3] = rats; based on the unbound fraction; cited from earlier work
# [4] = after uPSEM817 0.064 mg/kg i.v., CSF
# [5] = after uPSEM817 0.064 mg/kg i.v., plasma
# [6] = after uPSEM817 0.064 mg/kg s.c., plasma
Structure (SMILES),"Tmax of metabolite hydroxyvarenicline [1, 4]","Cmax of metabolite hydroxyvarenicline [1, 4]","Tmax of metabolite hydroxyvarenicline [1, 5]","AUC of metabolite hydroxyvarenicline [1, 5]","Cmax of metabolite hydroxyvarenicline [1, 5]","Tmax of metabolite hydroxyvarenicline [1, 6]","AUC of metabolite hydroxyvarenicline [1, 6]","Cmax of metabolite hydroxyvarenicline [1, 6]","detection of hydroxyvarenicline as metabolite in CSF ([1]; after uPSEM817 0.064 mg/kg, CSF)",detection of varenicline as metabolite in plasma or CSF ([1]; after uPSEM817 0.064 mg/kg s.c. or i.v.),neuronal activity in neurons expressing PSAM-GlyRs [2],CSF:plasma ratio [3]
O=c1cnc2cc3c(cc2[nH]1)C1CNCC3C1 (stereo not drawn) [hydroxyvarenicline],1.5 h,0.05 ng/mL,3 h,1.161 ng·h/mL,0.87 ng/mL and 0.874 ng/mL,1 h,0.556 ng·h/mL,0.55 ng/mL and 0.553 ng/mL,only detected in a single CSF sample for one animal,–,–,–
c1cnc2cc3c(cc2n1)[C@@H]1CNC[C@H]3C1 [varenicline],–,–,–,–,–,–,–,–,–,not detected,reduces neuronal activity,1.25
